Laboratory results: US20220257592A1, “METHODS OF TREATING CANCER” (HOFFMANN-LA ROCHE INC., priority 2019, published 2022)

Experiment: Clinical trial safety, ALKA, STARTRK-1, STARTRK-2, STARTRK-NG (interim, N=355)
[1] = may be underestimated, 4.5% had no post-treatment liver function tests
[2] = patients with at least one post-baseline ECG assessment
[3] = worsening from baseline, NCI CTCAE v5.0

## CN1CCN(c2ccc(C(=O)Nc3n[nH]c4ccc(Cc5cc(F)cc(F)c5)cc34)c(NC3CCOCC3)c2)CC1 [Entrectinib, N-[5-(3,5-difluorobenzyl)-1H-indazol-3-yl]-4-(4-methyl-piperazin-1-yl)-2-(tetrahydro-pyran-4-ylamino)-benzamide]
human, in vivo
  Cognitive impairment: mental status changes: 2%
  Discontinuation due to hyperuricemia: No patients discontinued
  Dose interruption due to anemia: 3.1%
  Dose interruption due to cognitive disorder: 2%
  Dose interruption due to diarrhea: 2.8%
  Dose interruption due to dizziness: 2.5%
  Dose interruption due to dyspnea: 2.3%
  Dose interruption due to fatigue: 3.7%
  Dose interruption due to increased blood creatinine: 4%
  Dose interruption due to nausea: 2.3%
  Dose interruption due to neutropenia: 2%
  Dose interruption due to pneumonia: 2.3%
  Dose interruption due to pyrexia: 2.8%
  Dose interruptions due to adverse reactions: 46%
  Dose reduction due to anemia: 1.7%
  Dose reduction due to dizziness: 3.9%
  Dose reduction due to fatigue: 2.3%
  Dose reduction due to increased blood creatinine: 3.1%
  Dose reduction due to increased weight: 1.4%
  Dose reductions due to adverse reactions: 29%
  Entrectinib discontinued due to increased AST or ALT: 0.8%
  Grade 3 cognitive adverse reactions: 4.5%
  Grade 3 mood disorders: 0.6%
  Grade 3 or 4 adverse reactions: 60%
  Grade 3 or 4 cognitive disorders: 4.5%
  Grade 3 or 4 diarrhea: 2%
  Grade 3 or 4 dyspnea: 6%
  Grade 3 or 4 fatigue/asthenia: 5%
  Grade 3 or 4 hypotension: 2.8%
  Grade 3 or 4 hypoxia: 3.4%
  Grade 3 or 4 increased weight: 7%
  Grade 3 or 4 lung infection: 5%
  Grade 3 or 4 pleural effusion: 3.1%
  Grade 3 or 4 pulmonary embolism: 3.4%
  Grade 3 or 4 syncope: 2.5%
  Grade 3 or 4 urinary tract infection: 2.5%
  Grade 3 sleep disturbances: 0.6%
  Hyperuricemia resolved following urate-lowering medication without interruption or dose reduction: 73%
  Incidence of CNS adverse reactions in patients with and without CNS metastases: similar
  Mood disorders: agitation: 2%
  Mood disorders: anxiety: 4.8%
  Mood disorders: depression: 2.8%
  Most common adverse reactions (≥20%): fatigue, constipation, dysgeusia, edema, dizziness, diarrhea, nausea, dysesthesia, dyspnea, myalgia, cognitive impairment, increased weight, cough, vomiting, pyrexia, arthralgia and vision disorders
  Myocarditis in the absence of CHF: 0.3%
  Permanent discontinuation due to an adverse reaction: 9%
  Permanent discontinuation due to cardio-respiratory arrest: < 1%
  Permanent discontinuation due to dyspnea: < 1%
  Permanent discontinuation due to fatigue: < 1%
  Permanent discontinuation due to pneumonia: < 1%
  Serious adverse reaction: dyspnea: 3.7%
  Serious adverse reaction: pleural effusion: 3.4%
  Serious adverse reaction: pneumonia: 3.9%
  Serious adverse reaction: pulmonary embolism: 2.3%
  Serious adverse reaction: pyrexia: 2%
  Serious adverse reaction: respiratory failure: 2%
  Serious adverse reaction: sepsis: 2.5%
  Serious adverse reactions: 39%
  Sleep disturbances: hypersomnia: 1.1%
  Sleep disturbances: insomnia: 7%
  Sleep disturbances: sleep disorder: 0.3%
  Sleep disturbances: somnolence: 7%
  Vision changes, Grade 1: 82%
  Vision changes, Grade 2: 14%
  Vision changes, Grade 3: 0.8%
  Vision disorders: blurred vision: 8.7%
  Vision disorders: cataract: 1.1%
  Vision disorders: diplopia: 3.1%
  Vision disorders: photophobia: 5.1%
  Vision disorders: photopsia: 1.3%
  Vision disorders: visual impairment: 2%
  Vision disorders: vitreous floaters: 1.1%
Including one patient who died due to tumor lysis syndrome
  Grade 4 hyperuricemia: 1.7%
[1]
  Grade 3-4 increased ALT: 2.8%
  Grade 3-4 increased AST: 2.5%
Of the 96 patients with cognitive impairment
  Cognitive impairment symptoms occurred within 3 months of starting entrectinib: 77%
[2]
  QTcF interval >500 ms: 0.6%
  QTcF interval prolongation of >60 ms after starting entrectinib: 3.1%
range: 1 day to 9 months
  Mood disorders, median time to onset: 1 month
range: 1 day to 9.2 months
  Increased ALT, median time to onset: 2 weeks
range: 1 day to 29.5 months
  Increased AST, median time to onset: 2 weeks
Reported 11 days after treatment had ended
  Completed suicide: One
Resolved after discontinuation and high-dose corticosteroids
  Grade 4 myocarditis after one dose of entrectinib: One
Second value of 'respectively'
  Increased AST or ALT leading to dose reductions: 0.8%
Worsening from baseline
  Laboratory: Anemia, All Grades: 67%
  Laboratory: Anemia, Grade 3 or 4: 9%
  Laboratory: Hyperkalemia, All Grades: 25%
  Laboratory: Hyperkalemia, Grade 3 or 4: 1.5%
  Laboratory: Hypernatremia, All Grades: 35%
  Laboratory: Hypernatremia, Grade 3 or 4: 0.9%
  Laboratory: Hyperuricemia, All Grades: 52%
  Laboratory: Hyperuricemia, Grade 3 or 4: 10%
  Laboratory: Hypoalbuminemia, All Grades: 28%
  Laboratory: Hypoalbuminemia, Grade 3 or 4: 2.9%
  Laboratory: Hypocalcemia, All Grades: 34%
  Laboratory: Hypocalcemia, Grade 3 or 4: 1.8%
  Laboratory: Hypophosphatemia, All Grades: 30%
  Laboratory: Hypophosphatemia, Grade 3 or 4: 7%
  Laboratory: Increased ALT, All Grades: 38%
  Laboratory: Increased ALT, Grade 3 or 4: 2.9%
  Laboratory: Increased AST, All Grades: 44%
  Laboratory: Increased AST, Grade 3 or 4: 2.7%
  Laboratory: Increased alkaline phosphatase, All Grades: 25%
  Laboratory: Increased alkaline phosphatase, Grade 3 or 4: 0.9%
  Laboratory: Increased amylase, All Grades: 26%
  Laboratory: Increased amylase, Grade 3 or 4: 5.4%
  Laboratory: Increased lipase, All Grades: 28%
  Laboratory: Increased lipase, Grade 3 or 4: 10%
  Laboratory: Lymphopenia, All Grades: 40%
  Laboratory: Lymphopenia, Grade 3 or 4: 12%
  Laboratory: Neutropenia, All Grades: 28%
  Laboratory: Neutropenia, Grade 3 or 4: 7%
[3]
  Laboratory: Hyperglycemia, Grade 3 or 4: 3.8%
  Laboratory: Increased creatinine, All Grades: 73%
  Laboratory: Increased creatinine, Grade 3 or 4: 2.1%
